Measured values published in ChEMBL document CHEMBL3879911, “Heteroaryl compounds useful as inhibitors of E1 activating enzymes” (2008).

molecular target: T1, NEDD8 activating enzyme (Homo sapiens, UniProt Q8TBC4); test: Inhibition of recombinant human NAEalpha/N-terminal His-tagged NAEbeta expressed in baculovirus infected insect Sf9 cells using N-terminal FLAG tagged Nedd8 as substrate incubated for 105 mins in presence of N-terminal GST-tagged Ubc12 by FRET assay
T1 sequence (Q8TBC4 whole entry): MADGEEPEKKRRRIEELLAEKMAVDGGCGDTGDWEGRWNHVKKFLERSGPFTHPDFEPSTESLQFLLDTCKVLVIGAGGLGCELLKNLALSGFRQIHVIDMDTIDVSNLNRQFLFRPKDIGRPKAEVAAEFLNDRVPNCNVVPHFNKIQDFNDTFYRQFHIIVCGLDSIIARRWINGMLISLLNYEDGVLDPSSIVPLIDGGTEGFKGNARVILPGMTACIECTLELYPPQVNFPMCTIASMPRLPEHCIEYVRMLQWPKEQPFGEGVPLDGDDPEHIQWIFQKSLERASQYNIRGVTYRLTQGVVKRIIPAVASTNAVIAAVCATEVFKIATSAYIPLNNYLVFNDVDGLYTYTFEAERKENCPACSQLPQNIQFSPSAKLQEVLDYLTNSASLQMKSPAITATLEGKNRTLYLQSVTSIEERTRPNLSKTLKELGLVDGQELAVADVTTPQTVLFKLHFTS
T1 sequence (Q13564 whole entry): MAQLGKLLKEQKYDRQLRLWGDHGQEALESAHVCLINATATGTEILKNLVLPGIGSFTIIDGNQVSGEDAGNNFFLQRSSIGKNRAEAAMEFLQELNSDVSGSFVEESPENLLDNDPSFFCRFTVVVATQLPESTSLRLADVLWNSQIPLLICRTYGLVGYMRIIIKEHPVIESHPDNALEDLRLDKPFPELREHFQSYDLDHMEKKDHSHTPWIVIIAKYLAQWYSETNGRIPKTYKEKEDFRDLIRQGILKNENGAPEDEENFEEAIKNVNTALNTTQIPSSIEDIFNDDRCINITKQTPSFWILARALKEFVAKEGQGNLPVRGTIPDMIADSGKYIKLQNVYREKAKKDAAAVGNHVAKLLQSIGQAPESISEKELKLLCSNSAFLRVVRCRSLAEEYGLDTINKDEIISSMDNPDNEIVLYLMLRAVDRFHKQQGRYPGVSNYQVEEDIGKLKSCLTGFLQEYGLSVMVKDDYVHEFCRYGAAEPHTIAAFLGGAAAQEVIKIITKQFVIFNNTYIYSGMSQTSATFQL

`NS(=O)(=O)OC[C@@H]1C[C@@H](N2CCc3c(N[C@H]4CCc5ccccc54)ncnc32)C[C@@H]1O` and `NS(=O)(=O)OC[C@@H]1C[C@@H](Oc2ccnc(N[C@H]3CCc4ccccc43)c2)C[C@@H]1O` cannot be ordered by IC50: no more than 0.5 µM for the first, 0.5 to 10 µM for the second.

`NS(=O)(=O)OC[C@@H]1C[C@@H](Nc2ncnc3[nH]c(-c4cccc5c4CCCC5)nc23)C[C@@H]1O` and `OC[C@@H]1C[C@@H](Nc2ncnc3[nH]c(-c4cccc5c4CCCC5)nc23)C[C@@H]1O` cannot be ordered by IC50: no more than 0.5 µM for the first, 0.5 to 10 µM for the second.

`NS(=O)(=O)OC[C@H]1C[C@@H](Nc2ccnc(C(=O)N3CCc4ccccc43)c2)[C@H](O)[C@@H]1O` and `NS(=O)(=O)OC[C@H]1C[C@@H](Nc2ccnc(C(=O)N[C@H]3CCc4ccccc43)c2)[C@H](O)[C@@H]1O` cannot be ordered by IC50: greater than 10 µM for the first, greater than 10 µM for the second.

`CC1(C)Cc2cccc(-c3nc4c(N[C@@H]5C[C@@H](COS(N)(=O)=O)[C@@H](O)C5)ncnc4[nH]3)c2O1` and `Cc1ccccc1-c1nc2c(N[C@@H]3C[C@@H](COS(N)(=O)=O)[C@@H](O)C3)ncnc2[nH]1` cannot be ordered by IC50: no more than 0.5 µM for the first, no more than 0.5 µM for the second.

`NS(=O)(=O)OC[C@@H]1C[C@@H](Oc2cc(NC3CCCC3)ncn2)C[C@@H]1O` and `CO[C@@H]1CCc2ccccc2[C@@H]1Nc1cc(O[C@@H]2C[C@@H](COS(N)(=O)=O)[C@@H](O)C2)ncn1` cannot be ordered by IC50: 0.5 to 10 µM for the first, no more than 0.5 µM for the second.

`NS(=O)(=O)OC[C@@H]1C[C@@H](Nc2ncnc3[nH]c(Cc4ccccc4)nc23)C[C@@H]1O` and `Cn1c(-c2ccccc2)nc2c(N[C@@H]3C[C@@H](COS(N)(=O)=O)[C@@H](O)C3)ncnc21` cannot be ordered by IC50: no more than 0.5 µM for the first, no more than 0.5 µM for the second.

`NS(=O)(=O)OC[C@@H]1C[C@@H](Nc2ncnc3oc(-c4ccccc4)nc23)C[C@@H]1O` and `NS(=O)(=O)OC[C@@H]1C[C@@H](Nc2ncnc3[nH]c(-c4cccc(-c5ccccc5)c4)nc23)C[C@@H]1O` cannot be ordered by IC50: no more than 0.5 µM for the first, no more than 0.5 µM for the second.

`CO[C@H]1c2ccccc2C[C@H]1Oc1cc(O[C@@H]2C[C@@H](COS(N)(=O)=O)[C@@H](O)C2)ncn1` and `CO[C@@H]1c2ccccc2C[C@@H]1Oc1cc(O[C@@H]2C[C@@H](COS(N)(=O)=O)[C@@H](O)C2)ncn1` fall in the same range of IC50: 0.5 to 10 µM for the first, 0.5 to 10 µM for the second.

`Cc1cccc(S(=O)(=O)c2nc3c(O[C@@H]4C[C@@H](COS(N)(=O)=O)[C@@H](O)C4)ncnc3[nH]2)c1` and `Cc1cccc(Sc2nc3ncnc(O[C@@H]4C[C@@H](COS(N)(=O)=O)[C@@H](O)C4)c3[nH]2)c1` cannot be ordered by IC50: no more than 0.5 µM for the first, no more than 0.5 µM for the second.

`NS(=O)(=O)OC[C@@H]1C[C@@H](Oc2cc(-c3ccccc3)ncn2)C[C@@H]1O` and `NS(=O)(=O)OC[C@@H]1C[C@@H](Oc2cc(Cc3ccccc3)ncn2)C[C@@H]1O` fall in the same range of IC50: 0.5 to 10 µM for the first, 0.5 to 10 µM for the second.

`NS(=O)(=O)OC[C@H]1C[C@@H](Nc2cc(Nc3cccc4c3CCCC4)ncn2)[C@H](O)[C@@H]1O` and `NS(=O)(=O)OC[C@H]1C[C@@H](Nc2cc(N[C@H]3CCC[C@@H]3OCc3ccccc3)ncn2)[C@H](O)[C@@H]1O` cannot be ordered by IC50: no more than 0.5 µM for the first, 0.5 to 10 µM for the second.

`NS(=O)(=O)OC[C@@H]1C[C@@H](Nc2ncnc3[nH]c(-c4ccccc4C(F)(F)F)nc23)C[C@@H]1O` and `CN(C)c1ccccc1-c1nc2c(N[C@@H]3C[C@@H](COS(N)(=O)=O)[C@@H](O)C3)ncnc2[nH]1` cannot be ordered by IC50: no more than 0.5 µM for the first, no more than 0.5 µM for the second.

`NS(=O)(=O)OC[C@H]1C[C@@H](Nc2nc(N[C@H]3CCc4ccccc43)ncc2F)[C@H](O)[C@@H]1O` and `CN(c1cc(N[C@H]2CCc3ccccc32)ncn1)[C@@H]1C[C@H](COS(N)(=O)=O)[C@@H](O)[C@H]1O` cannot be ordered by IC50: 0.5 to 10 µM for the first, no more than 0.5 µM for the second.

`NS(=O)(=O)OC[C@@H]1C[C@@H](Oc2cc(OCc3cccc4ccccc34)ncn2)C[C@@H]1O` and `NS(=O)(=O)OC[C@@H]1C[C@@H](Oc2cc(OCc3ccc4ccccc4c3)ncn2)C[C@@H]1O` fall in the same range of IC50: 0.5 to 10 µM for the first, 0.5 to 10 µM for the second.

`CO[C@H]1Cc2ccccc2[C@H]1Oc1cc(O[C@@H]2C[C@@H](COS(N)(=O)=O)[C@@H](O)C2)ncn1` and `CO[C@@H]1Cc2ccccc2[C@@H]1Oc1cc(O[C@@H]2C[C@@H](COS(N)(=O)=O)[C@@H](O)C2)ncn1` fall in the same range of IC50: 0.5 to 10 µM for the first, 0.5 to 10 µM for the second.

`NS(=O)(=O)OC[C@@H]1C[C@@H](Oc2ccncn2)C[C@@H]1O` and `NS(=O)(=O)OC[C@@H]1C[C@@H](Oc2cc(OCc3ccc(Cl)cc3)ncn2)C[C@@H]1O` cannot be ordered by IC50: greater than 10 µM for the first, greater than 10 µM for the second.

`NS(=O)(=O)OC[C@@H]1C[C@@H](Nc2ncnc3nc(-c4cccc5cccnc45)[nH]c23)C[C@@H]1O` and `NS(=O)(=O)OC[C@@H]1C[C@@H](Nc2ncnc3nc(-c4cccc5c4OCC5)[nH]c23)C[C@@H]1O` cannot be ordered by IC50: no more than 0.5 µM for the first, no more than 0.5 µM for the second.

`NS(=O)(=O)OC[C@@H]1C[C@@H](Nc2ncnc3nc(-c4ccc(OCc5ccccc5)cc4)[nH]c23)C[C@@H]1O` and `NS(=O)(=O)OC[C@@H]1C[C@@H](Oc2ncnc3nc(-c4cnn(Cc5ccccc5)c4)[nH]c23)C[C@@H]1O` cannot be ordered by IC50: no more than 0.5 µM for the first, no more than 0.5 µM for the second.

`CN(C)c1ccc(-c2nc3ncnc(O[C@@H]4C[C@@H](COS(N)(=O)=O)[C@@H](O)C4)c3[nH]2)c2ccccc12` and `NS(=O)(=O)OC[C@@H]1C[C@@H](Oc2ncnc3nc(-c4ccc(N5CCCC5)c5ccccc45)[nH]c23)C[C@@H]1O` cannot be ordered by IC50: no more than 0.5 µM for the first, no more than 0.5 µM for the second.

`CO[C@H]1Cc2ccccc2[C@H]1Nc1ncnc(O[C@@H]2C[C@@H](COS(N)(=O)=O)[C@@H](O)C2)c1F` and `CO[C@H]1Cc2ccccc2[C@H]1Nc1cc(O[C@@H]2C[C@@H](COS(N)(=O)=O)[C@@H](O)C2)ncn1` cannot be ordered by IC50: no more than 0.5 µM for the first, no more than 0.5 µM for the second.

`CN(c1ncnc2c1nc(-c1ccccc1)n2C)[C@@H]1C[C@@H](COS(N)(=O)=O)[C@@H](O)C1` and `NS(=O)(=O)OC[C@@H]1C[C@@H](Oc2ncnc3c2ncn3Cc2ccccc2)C[C@@H]1O` fall in the same range of IC50: 0.5 to 10 µM for the first, 0.5 to 10 µM for the second.

`NS(=O)(=O)OC[C@@H]1C[C@@H](Oc2ccnc3[nH]c(-c4cccc5ccccc45)nc23)C[C@@H]1O` and `NS(=O)(=O)OC[C@@H]1C[C@@H](Oc2ncnc3[nH]c(-c4cccc5ccccc45)nc23)C[C@@H]1O` cannot be ordered by IC50: no more than 0.5 µM for the first, no more than 0.5 µM for the second.

`CO[C@H]1Cc2ccccc2[C@H]1Nc1cc(O[C@@H]2C[C@@H](CNS(N)(=O)=O)[C@@H](O)C2)ncn1` and `CO[C@H]1CCc2ccccc2[C@H]1Nc1cc(O[C@@H]2C[C@@H](COS(N)(=O)=O)[C@@H](O)C2)ncn1` cannot be ordered by IC50: no more than 0.5 µM for the first, no more than 0.5 µM for the second.

`NS(=O)(=O)OC[C@@H]1C[C@@H](Oc2ncnc3nc(-c4cncc5ccccc45)[nH]c23)C[C@@H]1O` and `NS(=O)(=O)OC[C@@H]1C[C@@H](Oc2ncnc3nc(-c4c[nH]c5ccccc45)[nH]c23)C[C@@H]1O` cannot be ordered by IC50: no more than 0.5 µM for the first, no more than 0.5 µM for the second.

`CC1(C)C[C@H](Nc2ncnc(N[C@@H]3C[C@@H](COS(N)(=O)=O)[C@@H](O)C3)n2)c2ccccc21` and `NS(=O)(=O)OC[C@@H]1C[C@@H](Nc2ncnc(N[C@@H]3c4ccccc4CC3(F)F)n2)C[C@@H]1O` cannot be ordered by IC50: no more than 0.5 µM for the first, no more than 0.5 µM for the second.

`OC[C@@H]1C[C@@H](Nc2ncnc3[nH]c(-c4cccc5c4OCCO5)nc23)C[C@@H]1O` and `COc1cccc(-c2nc3c(N[C@@H]4C[C@@H](COS(N)(=O)=O)[C@@H](O)C4)ncnc3[nH]2)c1` cannot be ordered by IC50: 0.5 to 10 µM for the first, no more than 0.5 µM for the second.

`NS(=O)(=O)OC[C@H]1C[C@@H](Nc2cc(CCc3ccccc3)ncn2)[C@H](O)[C@@H]1O` and `NS(=O)(=O)OC[C@@H]1C[C@@H](Nc2cc(CCc3ccccc3)ncn2)C[C@@H]1O` fall in the same range of IC50: 0.5 to 10 µM for the first, 0.5 to 10 µM for the second.

`NS(=O)(=O)OC[C@@H]1C[C@@H](Nc2ncnc3[nH]c(C4CCCCC4)nc23)C[C@@H]1O` and `CC(C)(C)c1nc2c(N[C@@H]3C[C@@H](COS(N)(=O)=O)[C@@H](O)C3)ncnc2[nH]1` cannot be ordered by IC50: no more than 0.5 µM for the first, no more than 0.5 µM for the second.

`COc1cccc(OC)c1-c1nc2c(N[C@@H]3C[C@@H](COS(N)(=O)=O)[C@@H](O)C3)ncnc2[nH]1` and `NS(=O)(=O)OC[C@@H]1C[C@@H](Nc2ncnc3[nH]c(-c4ccc(Cl)cc4)nc23)C[C@@H]1O` cannot be ordered by IC50: no more than 0.5 µM for the first, no more than 0.5 µM for the second.

`CC1(C)C[C@H](Nc2cc(O[C@@H]3C[C@@H](COS(N)(=O)=O)[C@@H](O)C3)ncn2)c2ccccc21` and `NS(=O)(=O)OC[C@@H]1C[C@@H](Oc2cc(N3Cc4ccccc4C3)ncn2)C[C@@H]1O` cannot be ordered by IC50: no more than 0.5 µM for the first, 0.5 to 10 µM for the second.

`COc1ccc2c(c1)[C@H](Nc1cc(O[C@@H]3C[C@@H](COS(N)(=O)=O)[C@@H](O)C3)ncn1)[C@H](OC)CC2` and `COc1ccc2c(c1)[C@@H](Nc1cc(O[C@@H]3C[C@@H](COS(N)(=O)=O)[C@@H](O)C3)ncn1)[C@@H](OC)CC2` fall in the same range of IC50: 0.5 to 10 µM for the first, 0.5 to 10 µM for the second.

Compared with `CO[C@H]1Cc2ccccc2[C@H]1Nc1ncnc(N[C@@H]2C[C@@H](COS(N)(=O)=O)[C@@H](O)C2)n1`, `NS(=O)(=O)OC[C@@H]1C[C@@H](O)[C@H](Nc2cc(N[C@H]3CCc4ccccc43)ncn2)C1` is higher in IC50: no more than 0.5 µM for the first, greater than 10 µM for the second.

First: NS(=O)(=O)OC[C@H]1C[C@@H](Nc2cc(N[C@@H]3CCC[C@H]3OCc3ccccc3)ncn2)[C@H](O)[C@@H]1O
Second: NS(=O)(=O)OC[C@H]1C[C@@H](Nc2cc(C#Cc3ccccc3)ncn2)[C@H](O)[C@@H]1O
The IC50 of the first is higher: greater than 10 µM for the first, no more than 0.5 µM for the second. The second is the more potent here.
